Results taken from article PMC9197883, “Treatment with Polyethylene Glycol–Conjugated Fungal D-Amino Acid Oxidase Reduces Lung Inflammation in a Mouse Model of Chronic Granulomatous Disease” (Inflammation, 2022).

How the values were obtained:
fDAO / PEG-fDAO = tested on: T1, fDAO / PEG-fDAO; experiment: HRP-coupled o-dianisidine assay of H2O2 formation, nonlinear fit; format: biochemical; conditions: pH 6.5; 25 °C; enzyme form not stated beside the value, most likely PEG-conjugated (PEG-fDAO)
T1 construct: gene DAO; DAO from Fusarium spp. supplied by Ikeda Food Research; tetramer 165 kDa; PEG conjugate (five PEG chains, succinimide-PEG ME-020CS) 206 kDa

[1] = target: D-amino acid oxidase isolated from Fusarium spp. (Fusarium spp.) (UniProt P24552); experiment: not stated; fDAO in 'the physiological solution used for testing'; how the oligomeric state was found is not told

Row | stoichiometry N [1] | Compound | Km (fDAO / PEG-fDAO) [µM]
1 | – | N[C@H](Cc1ccccc1)C(=O)O [D-phenylalanine] | 220
2 | 4 | D-amino acid oxidase isolated from Fusarium spp. (from UniProt P24552 23-361) (enzyme) | –
